{"source": "patent US9017735B2", "about": "“Modulation of KCNQ potassium channel activity for treatment of psychiatric disorders and the symptoms thereof” (Marquette University, priority 2009, dated 2015)", "key": {"[1]": {"details": "comparative statement among the DuPont channel blockers; cited from earlier work"}, "[2]": {"tested_on": "KCNQ (Kv7) potassium channels", "test": "Social interaction behavior, acute PCP model of schizophrenia", "type": "in vivo, rats", "details": "for effect of channel blocker alone on level of social interaction: 15 minutes before social interaction arena; for reversal of PCP-induced social interaction deficit: p<0.05 vs. Sal/PCP"}, "[3]": {"tested_on": "KCNQ (Kv7) potassium channels", "test": "Prepulse inhibition (PPI) of the startle response, acute PCP model of schizophrenia", "type": "in vivo, rats", "details": "for effect on deficits in prepulse inhibition produced by phencyclidine (summary statement): phencyclidine administration in laboratory rodents, no dose stated", "excerpt": "The startle response is produced by delivery of a sudden and intense sensory stimulus pulse (120 db sound) and can be inhibited by exposure to a weaker prepulse (62, 66, or 75 db) which is slightly above the background noise level (60 db). […] PPI has been used as a measure of sensory information processing in rodents and humans. […] A cocktail mixture of XE991 and PCP dissolved in saline was used in these studies. N=38 rats per treatment. *p<0.05 vs. Sal/Sal; +p<0.05 vs. Sal/PCP.\n(§1) Drugs. All drugs were purchased from commercial sources and dissolved in saline. […] All drug doses were nmol per side and were injected bilaterally into the specified brain region."}, "[4]": {"tested_on": "KCNQ (Kv7) potassium channels", "test": "Social interaction behavior, acute PCP model of schizophrenia", "type": "in vivo, rats", "details": "phencyclidine administration in laboratory rodents; no dose stated", "excerpt": "Social interaction deficit is considered to be a negative symptom of schizophrenia and can be induced in rodents by acute PCP or Ketamine administration and can be reversed by antipsychotics. […] A cocktail mixture of XE991 and PCP dissolved in saline was used in these studies. *p<0.05 vs. Sal/Sal; +p<0.05 vs. Sal/PCP; N=25-42 rats per treatment.\nSocial interaction deficit is considered to be a negative symptom of schizophrenia and can be induced in rodents by acute PCP or Ketamine administration and can be reversed by antipsychotics. […] A cocktail mixture of DMP543 and PCP dissolved in 40% DMSO was used in these studies. *p<0.05 vs. Sal/Sal; +p<0.05 vs. Sal/PCP; N=10-28 rats per treatment. […]"}, "[5]": {"tested_on": "KCNQ potassium channels in prefrontal cortex", "test": "Forced delayed alternation task in a T-maze (working memory), acute PCP model, brain microinfusion", "type": "in vivo, rats", "details": "for effect on deficits in forced delayed alternation task performance in a T-maze produced by phencyclidine (summary statement): phencyclidine administration in laboratory rodents, no dose stated", "description": "This experimental paradigm involves the working memory, a prefrontal cortex dependent task, and is used to examine attention and memory function. This study was conducted to determine the role of KCNQ channels in PFC in regulation of memory.\nMicroinjection and Behavioral Experiments. Stainless Steel cannulae were implanted bilaterally 1 mm above nucleus accumbens or implanted in prefrontal cortex. Rats were permitted a minimum of 7 days recovery from surgery. Drugs were injected using an injection needle that extended 1 mm beyond the tip of the guide cannulae. […] In experiments where two drugs were delivered into accumbens, the microinjections were separated by 15 minutes. Behavioral activity then was monitored as discussed in the Results.\nas §1"}, "KCNQ channel": {"tested_on": "KCNQ channel", "details": "comparative statement among the DuPont channel blockers; cited from earlier work"}}, "note": "Entries after “also recorded” stand apart in the source; their conditions may differ."}
{"smiles": "O=C1c2ccccc2C(Cc2ccnc(F)c2)(Cc2ccnc(F)c2)c2ccccc21", "note": "[DMP543, 10,10-bis(2-fluoro-4-pyridinylmethyl)-9(10H)-anthracenone]", "values": [{"measurement": "serum half-life", "setting": "[1]", "result": "higher serum half-life"}, {"measurement": "effect of channel blocker alone on level of social interaction", "setting": "[2]; DMP543 0.15 mg/kg s.c. alone", "result": "did not significantly modulate"}, {"measurement": "reversal of PCP-induced social interaction deficit", "setting": "[2]; DMP543 0.15 mg/kg s.c. co-administered with PCP 1.5 mg/kg s.c. (cocktail in 40% DMSO)", "result": "significantly reversed the deficit"}, {"measurement": "reversal of PCP-induced social interaction deficit", "setting": "[2]; DMP543 0.15 mg/kg s.c. co-administered with PCP 1.5 mg/kg s.c. (cocktail in 40% DMSO), listed as DM543", "result": "reversed"}, {"measurement": "effect on deficits in prepulse inhibition produced by phencyclidine (summary statement)", "setting": "[3]", "result": "attenuate or fully reverse"}, {"measurement": "effect on deficits in social interaction produced by phencyclidine (summary statement)", "setting": "[4]", "result": "attenuate or fully reverse"}, {"measurement": "effect on deficits in forced delayed alternation task performance in a T-maze produced by phencyclidine (summary statement)", "setting": "[5]", "result": "attenuate or fully reverse"}, {"measurement": "potency at KCNQ channel", "setting": "KCNQ channel", "result": "higher potency"}]}
{"smiles": "O=C1N(c2ccccc2)c2ccccc2C1(Cc1ccncc1)Cc1ccncc1", "note": "[Linopirdine, 3,3-bis(4-pyridinylmethyl)-1-phenylindolin-2-one]", "values": [{"measurement": "effect on deficits in prepulse inhibition produced by phencyclidine (summary statement)", "setting": "[3]", "result": "attenuate or fully reverse"}, {"measurement": "effect on deficits in social interaction produced by phencyclidine (summary statement)", "setting": "[4]", "result": "attenuate or fully reverse"}]}
{"smiles": "c1ccc(C2(N3CCCCC3)CCCCC2)cc1", "note": "[PCP, phencyclidine]", "values": [{"measurement": "effect of PCP alone on social interaction time", "setting": "[2]; PCP 1.5 mg/kg s.c., 15 minutes before testing, p<0.05 vs. Sal/Sal", "result": "significant reduction in social interaction time"}, {"measurement": "effect of PCP alone on prepulse inhibition", "setting": "[3]; PCP 1.5 mg/kg s.c., all three prepulses, p<0.05 vs. Sal/Sal", "result": "reduced the prepulse inhibition at all three prepulses; also recorded: disrupts the prepulse inhibition"}, {"measurement": "effect of PCP alone on working memory", "setting": "[5]; PCP 3.0 mg/kg s.c. one hour before behavioral testing, trained rats, p<0.05 vs. Sal/Sal", "result": "robust and reproducible disruption of working memory"}]}
{"smiles": "O=C1c2ccccc2C(Cc2ccncc2)(Cc2ccncc2)c2ccccc21", "note": "[XE991, 10,10-bis(4-pyridinylmethyl)-9(101-1)-anthracenone]", "values": [{"measurement": "effect of channel blocker alone on level of social interaction", "setting": "[2]; XE991 0.5 mg/kg s.c. alone", "result": "did not significantly modulate"}, {"measurement": "reversal of PCP-induced social interaction deficit", "setting": "[2]; XE991 0.5 mg/kg s.c. co-administered with PCP 1.5 mg/kg s.c. (cocktail in saline)", "result": "reversed the deficit"}, {"measurement": "effect of channel blocker alone on prepulse inhibition", "setting": "[3]; XE991 0.5 mg/kg s.c. alone, 10 minutes before startle chamber, prepulses 62, 66, 75 db", "result": "did not show any disruption of the prepulse inhibition"}, {"measurement": "reversal of PCP-induced deficits in PPI", "setting": "[3]; XE991 0.5 mg/kg s.c. with PCP 1.5 mg/kg s.c. (cocktail in saline), 66 db prepulse, p<0.05 vs. Sal/PCP", "result": "reversed the PCP-induced deficits in PPI"}, {"measurement": "effect on deficits in prepulse inhibition produced by phencyclidine (summary statement)", "setting": "[3]", "result": "attenuate or fully reverse"}, {"measurement": "effect on deficits in social interaction produced by phencyclidine (summary statement)", "setting": "[4]", "result": "attenuate or fully reverse"}, {"measurement": "effect of channel blocker alone on memory and performance in delayed alternation task", "setting": "[5]; XE991 60 nmol/1 ul/1 min, acute bilateral infusion into prefrontal cortex, alone", "result": "did not disrupt the memory and performance"}, {"measurement": "reversal of PCP-induced working memory deficits", "setting": "[5]; XE991 60 nmol/1 μl/1 min microinfusion into PFC 5 minutes before PCP 3.0 mg/kg s.c., p<0.05 vs. Sal/PCP", "result": "reversed the PCP-induced memory deficits"}, {"measurement": "effect on PCP-mediated working memory disruption", "setting": "[5]; XE991 microinjected in the nucleus accumbens (data not shown)", "result": "no effect"}, {"measurement": "effect on deficits in forced delayed alternation task performance in a T-maze produced by phencyclidine (summary statement)", "setting": "[5]", "result": "attenuate or fully reverse"}]}
